In patent EP2029580B1, “NOVEL INDOL-PYRROL DERIVATIVES FOR THE TREATMENT OF PROLIFERATIVE AND INFLAMMATORY DISEASES” (ScheBo Biotech AG, priority 2006, dated 2007):
Read-outs that look alike come from different tables or passages of the source.

Tests used:
[1] = tested on: MCF-7; test: XTT cell proliferation inhibition, MCF-7; type: cell-based, humane
Description: (§1) Die Substanzen der Beispiele 2.1 bis 2.3 wurden an verschiedenen Zelllinien in An- und Abwesenheit von Pyruvat im Nährmedium auf ihre proliferationshemmende Wirkung getestet. Die Substanzen wurden jeweils in DMSO gelöst. Anschließend wurde der Wirkstoff in acht Konzentrationsintervallen getestet. Der Berechnung der IC50-Werte lagen in jeder Konzentration acht Einzelwertbestimmungen zugrunde. Der IC50-Wert gibt die Wirkstoffkonzentration an, bei der im Vergleich zur Kontrollgruppe, die ausschließlich mit dem Lösungsmittel DMSO behandelt wurde, eine 50%ige Hemmung der Zellproliferation vorlag.

[2] = tested on: HT-29; test: XTT cell proliferation inhibition, HT-29; type: cell-based, humane; conditions: read-out: IC50 ohne Pyrovat
Description: as §1

[3] = tested on: BxPC-3; test: XTT cell proliferation inhibition, BxPC-3; type: cell-based, humane
Description: as §1

[4] = tested on: MDA-MB-453; test: XTT cell proliferation inhibition, MDA-MB-453; type: cell-based, humane; conditions: Homo sapiens
Description: as §1

[5] = tested on: NK1; test: XTT cell proliferation inhibition, NK1; type: cell-based, Ratten; conditions: NK1, without pyruvate in the medium; read-out: IC50 ohne Pyrovat
Description: as §1

[6] = tested on: Wi-38; test: XTT cell proliferation inhibition, Wi-38; type: cell-based, humane; conditions: Homo sapiens; Wi-38, with pyruvate in the medium; read-out: IC50 (XTT) mit Pyrovat
Description: as §1

[7] = tested on: KBV-600; test: XTT cell proliferation inhibition, KBV-600; type: cell-based; conditions: KBV-600 (cultured with 600 ng/ml Vinblastin), without pyruvate in the medium; read-out: IC50 ohne Pyrovat
Description: as §1

[8] = tested on: 25 verschiedenen Tumormodellen; test: Colony assay in soft agar, 25 tumour models; type: cell-based, menschlichen
Description: (§2) Im Kolonie-Assay werden Tumorstammzellen von verschiedenen menschlichen Tumorentitäten in Softagar kultiviert und die Ausbildung von Tumorkolonien in An- und Abwesenheiten von der erfindungsgemäßen Substanz (Beispiel 2.1, ggf. als Malat der Beispiel 2.2 oder 2.3) ausgezählt. Insgesamt wurde die Substanz an 25 verschiedenen Tumormodellen getestet. Zu den Tumormodellen gehörten Colon-, Pankreas- und Magenkarzinome, kleinzellige und nicht kleinzellige Lungentumore, Brust-, Ovar- und Nierenkarzinome sowie Melanome. Das breite Spektrum von verschiedenen Tumorentitäten sowie die große Anzahl von Modellen ermöglichen nach der Zellkultur eine erneute Prüfung der Wirksamkeit der Substanz und geben erste Hinweise darauf, ob die Substanz Wirkungsselektivität für bestimmte Tumorentitäten besitzt.
(§3) Die Ergebnisse sind in der Figur 1 dargestellt (graphische Analyse der Mittelwerte für die Substanz basierend auf den IC70-Werten). Die Balken stellen die IC70-Konzentrationen im Verhältnis zum Mittelwerte aller IC70-Werte dar. Bei Balken nach links ist der IC70-Wert für das betreffende Modell niedriger als der Mittelwert der IC70-Werte aller Modelle, d.h. diese Modelle sind sensitiver im Vergleich zum Durchschnitt aller Modelle. Balken nach rechts bedeuten höhere IC70-Werte als der Durchschnitt der Modelle und damit eine geringere Sensitivität.

[9] = tested on: nicht kleinzelliges Lungentumormodell; test: Colony assay in soft agar, non-small-cell lung tumour model; type: cell-based, menschlichen; conditions: most sensitive model
Description: as §2, §3

[10] = tested on: Brusttumormodell; test: Colony assay in soft agar, breast tumour model; type: cell-based, menschlichen; conditions: least sensitive model
Description: as §2, §3

[11] = tested on: Ovarialkarzinom (OVXF 550); test: Colony assay in soft agar, ovarian carcinoma OVXF 550; type: cell-based, menschlichen
Description: as §2
Im gleichen Kolonie-Assay und unter gleichen experimentellen Bedingungen wurden für die erfindungsgemäße Substanz (5-[5-Fluoro-2-oxo-1,2-dihydro-indol-(3Z)-ylidenemythyl]-2,4-dimethyl-1H-pyrrole-3-carboxylic acid (2-diethylamino-ethoxy)-amide (vorzugsweise das Salz der Äpfelsäure, Malate) folgende Werte gefunden: OVXF 550: IC50 = […], IC70 = 21,6 µM

[12] = tested on: verschiedenen Zelllinien; test: Cell culture proliferation inhibition, summary over all cell lines; type: cell-based; conditions: span over the cell lines of Table 1; read-out: IC50-Werte
Description: as §1

SMILES: CCN(CC)CCONC(=O)c1c(C)[nH]c(/C=C2\C(=O)Nc3ccc(F)cc32)c1C [Beispiel 2.1, 5-[5-Fluoro-2-oxo-1,2-dihydro-indol-(3Z)-ylidenemethyl]-2,4-dimethyl-1H-pyrrole-3-carboxylic acid (2-diethylamino-ethoxy)-amide]
- IC50 ([1]; Homo sapiens, MCF7, MCF-7, with pyruvate in the medium, read-out: IC50 (XTT) mit Pyrovat): 11 µM
- IC50 ([1]; Homo sapiens, MCF7, MCF-7, without pyruvate in the medium, read-out: IC50 ohne Pyrovat): 8 µM
- IC50 ([2]; Homo sapiens, HT-29, without pyruvate in the medium): 3.5 µM
- IC50 ([3]; Homo sapiens, BxPC-3, with pyruvate in the medium, read-out: IC50 (XTT) mit Pyrovat): 1.3 µM
- IC50 ([3]; Homo sapiens, BxPC-3, without pyruvate in the medium, read-out: IC50 ohne Pyrovat): 2 µM
- IC50 ([4]; MDA-MB-453, with pyruvate in the medium, read-out: IC50 (XTT) mit Pyrovat): 11 µM
- IC50 ([4]; MDA-MB-453, without pyruvate in the medium, read-out: IC50 ohne Pyrovat): 7 µM
- IC50 [5]: 2 µM
- IC50 [6]: 11 µM
- IC50 [7]: 5 µM
- Hemmung der Koloniebildung ([8]; all 25 models): Dosis-abhängigen Hemmung der Koloniebildung
- mittlere IC70-Wert ([8]; mean over all 25 tumour models): 20 µM
- IC50 ([8]; mean over all 25 tumour models, read-out: mittlere IC50-Wert): 15 µM
- IC50 [9]: 4 µM
- IC70-Wert [9]: 6 µM
- IC70-Wert [10]: 40 µM
- IC50 ([10]; read-out: höchste IC50-Wert): 30 µM
- IC70 [11]: 21,6 µM
- IC50 ([11]; substance preferably as malate salt): 16.7 µM

SMILES: CCN(CC)CCONC(=O)c1c(C)[nH]c(/C=C2\C(=O)Nc3ccc(F)cc32)c1C [Beispiel 2.2, N-[2-(diethylamino)ethoxy]-5-[(Z)-(5-Fluoro-1,2-dihydro-2-oxo-3H-indol-3-ylidene)methyl]-2,4-dimethyl-1H-pyrrole-3-carboxamide, (2S)-hydroxybutanedionate (1:0,5)]
- IC50 ([2]; Homo sapiens, HT-29, HT-29, without pyruvate in the medium): 3 µM
- IC50 ([3]; BxPC-3, with pyruvate in the medium, read-out: IC50 (XTT) mit Pyrovat): 2 µM
- IC50 ([3]; BxPC-3, without pyruvate in the medium, read-out: IC50 ohne Pyrovat): 2 µM
- IC50 ([4]; MDA-MB-453, MDA-MB-453, with pyruvate in the medium, read-out: IC50 (XTT) mit Pyrovat): 8 µM

SMILES: CCN(CC)CCONC(=O)c1c(C)[nH]c(/C=C2\C(=O)Nc3ccc(F)cc32)c1C [Beispiel 2.3, N-[2-(diethylamino)ethoxy]-5-[(Z)-(5-Fluoro-1,2-dihydro-2-oxo-3H-indol-3-ylidene)methyl]-2,4-dimethyl-1H-pyrrole-3-carboxamide, (2S)-hydroxybutanedionate (1:1)]
- IC50 ([1]; MCF-7, with pyruvate in the medium, read-out: IC50 (XTT) mit Pyrovat): 9 µM
- IC50 ([1]; MCF-7, without pyruvate in the medium, read-out: IC50 ohne Pyrovat): 10 µM
- IC50 ([2]; HT-29, without pyruvate in the medium): 3 µM
- IC50 [5]: 4 µM

SMILES: CCN(CC)CCONC(=O)c1c(C)[nH]c(/C=C2\C(=O)Nc3ccc(F)cc32)c1C [SO 272]
- IC50 [12]: 1 to 11 µM

SMILES: CCN(CC)CCNC(=O)c1c(C)[nH]c(/C=C2\C(=O)Nc3ccc(F)cc32)c1C [SU11248, 5-[5-Fluoro-2-oxo-1,2-dihydroindol-(3Z)-ylidenemethyl]-2,4-dimethyl-1H-pyrrole-3-carboxylic Acid (2-Diethylaminoethyl)amide, reference compound]
- IC50 [11]: 18 µM
- IC70 [11]: 26,7 µM
